Measurements from article PMC5078989, “Targeted inhibition of the COP9 signalosome for treatment of cancer” (Nature Communications, 2016).

Tested on: SU-DHL-1 xenografts
Assay: Immunoblotting for Cul1 and Skp2 of tumours excised at end of treatment
Assay type: in vivo, SCID-bg mice
Conditions: tumours excised at the end of the study
Experimental: (a) SU-DHL-1 xenografts were grown in SCID-bg mice and dosed by oral administration with either vehicle control or CSN5i-3 at the indicated doses and schedules. Mean tumour volumes are shown±s.e.m. (n=4; P<0.05). (b) Immunoblotting for Cul1 and Skp2 of tumours excised at the end of treatment. (c) Pharmacokinetics of CSN5i-3 post second to last dose. Mean blood concentrations are shown±s.e.m. (n=4). […] Cells from longer compound incubations were also lysed in RIPA buffer, which allows the protein concentration to be determined by BCA Protein Assay Kit (Pierce). Proteins were separated by SDS-PAGE using 4-20% Tris-Glycine Gels (Invitrogen) and subsequently transferred to polyvinylidene difluoride membranes using a Trans-Blot Turbo System (BioRad). […] Cul1 (1:500; #718700), Cul2 (1:250; #7001792), Rbx1 (1:300; #342500) (Invitrogen); Fbxw7 (1:300; # 55290-1-AP), Fbxo22 (1:500; #13606-1-AP) (Proteintech); Cul3 (1:1,000; # […]), CSN5 (1:2,000; #[…]) (Bethyl Laboratories); Fbxo3 (1:300; #AP9195) (Abgent); p21 (1:500; #556431) (BD Biosciences); Fbxo30 (1:500; # H00084085-B01) (Abnova); β-Actin (1:5,000; #A5441) (Sigma-Aldrich); Fbxo7 (1:500; #PA527589) (Pierce). Horseradish peroxidase-conjugated secondary antibodies (1:3,000) were purchased from Promega AG and bound antibody was detected by enhanced chemiluminescence (Pierce). […]

CC(C)n1nc(C(F)F)cc1C(=O)Nc1ccc([C@H]2[C@@H](O)CCCc3cncn32)c(-c2ccccc2)c1 [CSN5i-3, 3-(Difluoromethyl)-N-(6-((5S,6S)-6-hydroxy-6,7,8,9-tetrahydro-5H-imidazo[1,5-a]azepin-5-yl)-[1,1′-biphenyl]-3-yl)-1-isopropyl-1H-pyrazole-5-carboxamide]
Cul1 deneddylation in tumours: inhibited | Skp2 levels in tumours: reduced
